Measured values from US20150297593A1 (priority 2012, published 2015).

What was measured:
[1] = test system: recombinant IL-33 (rIL-33)-induced AHR; settings: mouse, in vivo
[2] = test system: RSV; test: RSV-induced AHR model; format: in vivo, BALB/c mice; settings: 100 mg/kg i.p. on day 1 post infection
[3] = test system: influenza A virus (Mem71, H3N1); parameters: species or system BALB/c mice; settings: mouse, in vivo
[4] = test system: nuocytes (CD45+Lin−ST2+ckit+Sca1+); test: FACS count of BAL and lung nuocytes after rIL-33 in Rag2−/− mice; settings: imatinib 100 mg/kg i.p. on day 1, day 5
Procedure: In FIGS. 5C and 5D, BAL cells (FIG. 5C) or lung cells (FIG. 5D) were taken from 8 wk old Rag2^−/− mice (n=5 per group) on day 5, and further stimulated with PMA+ionomycin for 5 hr. The percentage of lung CD45^+Lin^−ST2^+ckit^+Sca1^+ cells was assessed by FACS. Third panels show dot plots for Lin^−ST2^+ cells in lung leukocytes (CD45^+). After gating on the Lin^−ST2^+cKit^+ cells, the cells were analyzed for c-Kit and Sca1 expression (fourth panels).
Whole lungs were flushed with PBS injected into the right ventricle, removed, and rinsed in PBS. […] The digest was passed multiple times through an 18-gauge needle and allowed to incubate for another 30 min before filtered. RBCs were removed by 4-min incubation in lysis buffer (Sigma-Aldrich, St. Louis, Mo.) at room temperature. Single-cell suspensions of spleen lymphocytes were obtained by mechanical disruption and RBC lysis.
Cells were preincubated with anti-Fcy blocking mAb (2.4G2) and washed before staining. Cells were stained with anti-mouse PE-Texas red-conjugated CD45, FITC-conjugated CD3, CD19, CD11b, CD11c, CD49b, F4/80, Fc□R1; APC conjugated cKit,; PerCP conjugated cKit, Alexa Fluor 700-conjugated Sca1; PE conjugated biotinylated anti-ST2 antibodies. […] Cells were analyzed on a BDCanto flow cytometer (BD Biosciences, Franklin Lakes, N.J.) using FlowJo 8.3.3 software (Tree Star, Inc., Ashland, Oreg.).

[5] = test system: influenza A virus (Mem71, H3N1); format: in vivo, Rag2−/− mice
[6] = test system: nuocytes (CD45+Lin−ST2+cKit+Sca1+); format: in vivo, BALB/c mice
[7] = test system: mouse lung nuocytes (Lin−ST2+); format: cell-based; settings: IL-2 50 ng/ml plus rIL-33 100 ng/ml, imatinib 0.1-1 μM
[8] = test system: human nuocytes isolated from the BAL fluid of patients with asthma; format: cell-based; settings: imatinib 1 μM; rIL-2 50 ng/ml plus rIL-33 100 ng/ml for 24 hrs
[9] = test system: influenza A virus (Mem71, H3N1); settings: 100 mg/kg i.p. on day 1; sera on day 11
[10] = 100 mg/kg on day 1, day 5 post-infection
[11] = after imatinib treatment, data not shown

Cc1ccc(NC(=O)c2ccc(CN3CCN(C)CC3)cc2)cc1Nc1nccc(-c2cccnc2)n1 [imatinib]
AHR induced with recombinant IL-33 [1]: could block
development of RSV-induced inflammation [2]: blocked
development of RSV-induced AHR ([2]; assessed 6 days post-infection): blocked
inflammation (BAL fluid cells) [3]: abolished
lung inflammation (BAL fluid cells) [3]: abolished
number of BAL and lung nuocytes (airway nuocytophilia induced with rIL-33) [4]: reduced
H3N1 infection-induced inflammation in Rag2−/− mice ([5]; 100 mg/kg i.p. on day 1, […]): inhibits
influenza-induced AHR in Rag2−/− mice ([5]; mouse, in vivo): blocked
total number of NKT cells in the lung ([6]; 100 mg/kg on day 1, day 5): had no effect
total number of conventional T cells in the lung ([6]; 100 mg/kg on day 1, day 5): had no effect
frequency and absolute number of nuocytes in BAL fluid [6, 10]: reduced
frequency and absolute number of nuocytes in the lungs [6, 10]: reduced
frequency of NKT cells in BAL fluid [6, 11]: slightly reduced
total number of BAL fluid cells [6, 11]: slightly reduced
secretion of IL-5 by nuocytes (ELISA) [7]: reduced
secretion of IL-13 by nuocytes (ELISA) [7]: reduced
proliferation of mouse lung nuocytes (3H-thymidine incorporation) ([7]; dose-dependent): blocked
production of IL-13 by human nuocytes [8]: blocked
anti-influenza IgG production [9]: no significant reduction

Cc1ccc(NC(=O)c2ccc(CN3CCN(C)CC3)cc2)cc1Nc1nc(-c2cccnc2)cs1 [masitinib]
H3N1-induced AHR [3]: abolished
H3N1-induced inflammation [3]: abolished
